Data taken from patent publication US20240197728A1, “METHODS AND PHARMACEUTICAL COMPOSITIONS FOR TREATING REFRACTORY EPILEPSY” (INSERM (INSTITUT NATIONAL DE LA SANTÉ ET DE LA RECHERCHE …, priority 2021, published 2024).

Columns and labels:
[1] = target: T1, KCC2 (Rattus norvegicus, UniProt Q63633); assay: KCC2 cluster immunocytochemistry in hippocampal neurons; assay type: cell-based; conditions: for change of KCC2 cluster area / change of KCC2 cluster density / change of KCC2 cluster intensity: vs DMSO
T1 construct: endogenous in cells; host or cells: primary rat hippocampal neurons (E18-19 Sprague-Dawley)
T1 sequence (Q63633 1-1116 isoform Q63633-2): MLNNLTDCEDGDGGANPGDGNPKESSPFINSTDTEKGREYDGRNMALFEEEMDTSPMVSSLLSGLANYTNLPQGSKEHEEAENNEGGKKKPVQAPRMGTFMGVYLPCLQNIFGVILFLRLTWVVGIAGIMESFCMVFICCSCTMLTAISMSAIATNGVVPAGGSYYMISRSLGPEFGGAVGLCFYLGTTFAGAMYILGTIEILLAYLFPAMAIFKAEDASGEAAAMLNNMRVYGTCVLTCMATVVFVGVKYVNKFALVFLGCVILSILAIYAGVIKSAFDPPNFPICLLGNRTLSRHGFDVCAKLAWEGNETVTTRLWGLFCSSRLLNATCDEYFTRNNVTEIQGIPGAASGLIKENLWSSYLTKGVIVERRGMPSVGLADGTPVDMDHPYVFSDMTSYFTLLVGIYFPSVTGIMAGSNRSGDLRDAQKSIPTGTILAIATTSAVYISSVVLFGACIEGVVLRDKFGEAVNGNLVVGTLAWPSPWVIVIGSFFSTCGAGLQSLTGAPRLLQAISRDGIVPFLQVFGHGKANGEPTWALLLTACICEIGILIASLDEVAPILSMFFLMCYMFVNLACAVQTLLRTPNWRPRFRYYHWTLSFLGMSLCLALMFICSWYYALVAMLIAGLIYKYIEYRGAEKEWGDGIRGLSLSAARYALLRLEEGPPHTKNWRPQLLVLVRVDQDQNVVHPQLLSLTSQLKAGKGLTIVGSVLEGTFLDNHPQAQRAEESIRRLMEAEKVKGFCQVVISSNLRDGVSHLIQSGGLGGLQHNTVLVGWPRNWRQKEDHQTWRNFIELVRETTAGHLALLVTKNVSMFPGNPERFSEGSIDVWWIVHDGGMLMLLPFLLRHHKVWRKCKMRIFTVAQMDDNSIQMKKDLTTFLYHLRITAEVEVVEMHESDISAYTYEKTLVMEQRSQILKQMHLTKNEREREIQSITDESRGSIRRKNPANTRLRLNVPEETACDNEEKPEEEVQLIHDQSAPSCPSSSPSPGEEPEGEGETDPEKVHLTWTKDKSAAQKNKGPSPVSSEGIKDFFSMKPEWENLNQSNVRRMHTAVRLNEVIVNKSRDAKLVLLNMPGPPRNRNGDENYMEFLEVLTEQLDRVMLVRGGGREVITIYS
Description: […] Drugs were added directly to the culture medium. For electrophysiology experiments, neurons were also recorded in presence of these drugs in the bath. For biochemistry experiments on rat hippocampo-cortical slices, slices were incubated with either DMSO (vehicle), CLP257, PCPZ, WNK463 or sodium orthovanadate for 2 hours in interface chambers set at 37° C. For human tissue experiments, slices were pre-incubated with either DMSO, CLP257 or PCPZ for 2 hours in interface chambers set at 37° C. and then also recorded in presence of these compounds.
Neurons were fixed for 15 min at room temperature (RT), with paraformaldehyde (PFA, 4% w/v in PBS). Cells were then washed in PBS, permeabilized with […] for 4 min at RT and then exposed to a blocking solution containing goat serum (20% v/v; Invitrogen) and 0.1% Triton X100 diluted in PBS. Neurons were incubated for 1 hour at RT with rabbit KCC2 antibody (1: 500; Sigma) and mouse MAP2 antibody (1:500; Chemicon). Neurons were then incubated for 45 min at RT with AlexaFluor 488-conjugated goat anti-mouse antibody (1:400; Jackson Labs) and with Cy3-conjugated goat anti-rabbit antibody (1:400; Jackson Labs). Neurons were then labeled with DAPI (1:2000, 5 min), washed in PBS and mounted on slides with Mowiol 844 (48 mg/ml, Sigma).
Images were acquired using a 63×objective (NA 1.40) mounted on an upright epifluorescence microscope (DM6000, Leica) equipped with a 12-bit cooled CCD camera (Micromax, Roper Scientific) operated with MetaMorph software (Roper Scientific). For KCC2 clusters detection, exposure time was adjusted to obtain best fluorescence to noise ratio and to avoid pixel saturation. This exposure time was maintained unchanged among cells and conditions. For experiments on non-transfected cells and for each neuron, dendritic sections were chosen using MAP2 labeling and then an image with tetramethylrhodamine (TRITC) filter was acquired to visualize KCC2 labeling.
KCC2 clusters analysis was performed using MetaMorph software (Roper Scientific), as previously described. Images were first flatten background filtered (kernel size, 3×3×2) to enhance cluster outline and a user-defined intensity threshold was applied to select clusters and avoid their coalescence. Clusters were delineated in the area of interest (AOI) and the corresponding regions were transferred onto raw images to quantify cluster density (mean KCC2 cluster number per 10 μm^2) and integrated cluster intensity (integrated fluorescence pixel intensity within clusters). For each culture, the analysis was done on 10 cells per condition and approx. 100 clusters per cell.

[2] = target: T1, KCC2; assay: Somato-dendritic EGABA gradient (chloride extrusion), whole-cell patch clamp of hippocampal neurons; assay type: cell-based

Row | increased KCC2 clustering observed ([1]; 10 μM PCPZ, 30 minutes) | change of KCC2 cluster area ([1]; 10 μM PCPZ, 2 h) | change of KCC2 cluster density ([1]; 10 μM PCPZ, 2 h) [%] | change of KCC2 cluster intensity ([1]; 10 μM PCPZ, 2 h) | somato-dendritic gradient of EGABA (ΔEGABA) ([2]; 10 μM PCPZ, 2 h, isoguvacine 100 μM, control 6.56±0.83) [mV/100 μm] | increased KCC2 clustering observed ([1]; 100 μM CLP257, 30 minutes) | change of KCC2 cluster area ([1]; 100 μM CLP257, 2 h) | change of KCC2 cluster density ([1]; 100 μM CLP257, 2 h) [%] | change of KCC2 cluster intensity ([1]; 100 μM CLP257, 2 h) | somato-dendritic gradient of EGABA (ΔEGABA) ([2]; 100 μM CLP257, 2 h, RubiGABA 30 μM uncaging, control 5.32±1.08) [mV/100 μm] | Compound
1 | not after 30 minutes only | +45.25±18.07% | −6.58±8.37 | +109±61.44% | 11.50±1.53 |  |  |  |  |  | CN1CCN(CCCN2c3ccccc3Sc3ccc(Cl)cc32)CC1 [PCPZ, prochlorperazine]
2 |  |  |  |  |  | not after 30 minutes only | +36.30±20.40% | −3.48±4.20 | +33.94±13.64% | 9.70±1.13 | O=C1N=C(N2CCCCN2)S/C1=C\c1ccc(F)cc1O [CLP257, (5Z)-5-[(4-Fluoro-2-hydroxyphenyl)methylene]-2-(tetrahydro-1-(2H)-pyridazinyl)-4(5H)-thiazolone]
